{"source": "patent US20140186325A1", "about": "“Methods of Cancer Treatment and Prevention Through the Modulation of SIRT4 Activity” (President and Fellows of Harvard College, priority 2011, published 2014)", "type_in_all_cases": "cell-based", "key": {"SIRT4": {"test_system": "SIRT4", "test": "SIRT4 expression level after genotoxic stress, HEK293T cells", "conditions": "14 μM CPT, 25 μM ETS, 48 μM tunicamycin", "text": "The relationship between sirtuin expression and DNA damage was next investigated."}, "MEF cells": {"test_system": "MEF cells", "test": "Metabolite levels in culture media (BioProfile FLEX analyzer), MEF cells", "conditions": "14 μM for 12 hours", "method": "(§1) The relationship between glutamine metabolism and DNA damage was investigated. HepG2 cells and MEF cells were treated with either 14 μM camptothecin (CPT) for 12 hours or 50 J/m^2 ultra-violet (UV) radiation, both of which are known to induce DNA damage in cells. Glucose, glutamine, lactate and ammonia (NH4^+) levels in culture media were measured using the BioProfile FLEX analyzer (Nova Biomedical) according to the manufacturer's instructions."}, "SIRT4 protein [1]": {"test_system": "SIRT4 protein", "test": "SIRT4 protein expression by western blot, HEK293T cells"}, "HepG2 cells [2]": {"test_system": "HepG2 cells", "test": "Metabolite levels in culture media (BioProfile FLEX analyzer), HepG2 cells", "conditions": "14 μM for 12 hours", "method": "as §1"}, "SIRT4 protein [3]": {"test_system": "SIRT4 protein", "test": "SIRT4 protein expression by western blot, MEF cells"}, "SIRT4 KO cells": {"test_system": "SIRT4 KO cells", "test": "Glutamine uptake of SIRT4 KO cells with glutaminolysis inhibitors", "conditions": "for glutamine uptake: 10 μM BPTES, 50 μM EGCG", "method": "(§2) As described above, SIRT4 represses glutamine-derived mitochondrial anaplerosis. This node was investigated further using a pharmacological and genetic approach. GLS is the first required enzyme for mitochondrial glutamine metabolism, and catalyzes the hydrolysis of glutamine to glutamate and ammonia. […] Drugs that block glutamate dehydrogenase (GDH) activity were also examined. There were no effects of a GDH inhibitor, 50 μM of Epigallocatechin gallate (EGCG), in glutamine uptake. Moreover, SIRT4 overexpression could no longer inhibit glutamine uptake and ammonia production when GLS1 was targeted using short hairpin RNA (shRNA) (FIG. 13b, c). Finally, cells were treated with chemical inhibitors of mitochondrial glutaminolysis in order to probe the model that suppressing this node could block the repression of glutamine uptake by DNA damage."}, "SIRT4 KO MEFs": {"test_system": "SIRT4 KO MEFs", "test": "Proliferation of SIRT4 KO MEFs", "conditions": "SIRT4 KO versus WT MEFs cultured with BPTES", "method": "To test whether enhanced glutamine metabolism drove the proliferative phenotype of KO cells, cells were cultured with BPTES and proliferation was measured."}, "HeLa cells": {"test_system": "HeLa cells", "test": "Proliferation of control and SIRT4-expressing HeLa cells", "conditions": "media containing BPTES"}, "[4]": {"test_system": "mitochondrial glutaminolysis", "test": "Repression of glutamine uptake by UV in the presence of inhibitors of mitochondrial glutaminolysis", "conditions": "in the presence of the inhibitor", "method": "as §2"}, "HepG2 cells [5]": {"test_system": "HepG2 cells", "test": "Relative ATP/ADP ratio of HepG2 cells stably expressing human SIRT4 or SIRT4 mutant", "conditions": "CPT (14 μM) + oligomycin (5 g/ml) for 18 hours", "method": "The relationship between SIRT4 and mitochondrial metabolism was next investigated. The relative ATP/ADP ratio of HepG2 cells that stably expressed human SIRT4 or SIRT4 mutant was measured following treatment with DMSO, CPT (14 μM) or CPT+oligomycin ([…]) for 18 hours."}}}
{"compound": "tunicamycin", "values": [{"measurement": "level of SIRT4 expression versus length of exposure", "setting": "SIRT4", "value": "correlated with the length of time"}]}
{"compound": "CC[C@@]1(O)C(=O)OCc2c1cc1n(c2=O)Cc2cc3ccccc3nc2-1", "note": "[CPT, camptothecin]", "values": [{"measurement": "NH4+ production", "setting": "MEF cells", "value": "significant reductions"}, {"measurement": "glutamine consumption", "setting": "MEF cells", "value": "significant reductions"}, {"measurement": "SIRT4 protein expression", "setting": "SIRT4 protein [1]", "value": "increased SIRT4 protein expression"}, {"measurement": "NH4+ production", "setting": "HepG2 cells [2]", "value": "significant reductions"}, {"measurement": "glutamine consumption", "setting": "HepG2 cells [2]", "value": "significant reductions"}, {"measurement": "SIRT4 protein expression", "setting": "SIRT4 protein [3]", "value": "increased SIRT4 protein expression"}, {"measurement": "level of SIRT4 expression versus length of exposure", "setting": "SIRT4", "value": "correlated with the length of time"}]}
{"compound": "COc1cc([C@@H]2c3cc4c(cc3[C@@H](O[C@@H]3O[C@@H]5CO[C@@H](C)O[C@H]5[C@H](O)[C@H]3O)[C@H]3COC(=O)[C@H]23)OCO4)cc(OC)c1O", "note": "[ETS, etoposide]", "values": [{"measurement": "SIRT4 protein expression", "setting": "SIRT4 protein [1]", "value": "increased SIRT4 protein expression"}, {"measurement": "SIRT4 protein expression", "setting": "SIRT4 protein [3]", "value": "increased SIRT4 protein expression"}]}
{"compound": "O=C(O[C@@H]1Cc2c(O)cc(O)cc2O[C@@H]1c1cc(O)c(O)c(O)c1)c1cc(O)c(O)c(O)c1", "note": "[EGCG, Epigallocatechin gallate]", "values": [{"measurement": "glutamine uptake", "setting": "SIRT4 KO cells", "value": "no effects"}]}
{"compound": "O=C(Cc1ccccc1)Nc1nnc(CCSCCc2nnc(NC(=O)Cc3ccccc3)s2)s1", "note": "[BPTES, bis-2-(5-phenylacetoamido-1,2,4-thiadiazol-2-yl)ethyl sulfide]", "values": [{"measurement": "increased proliferation of KO cells", "setting": "SIRT4 KO MEFs", "value": "completely abrogated"}, {"measurement": "proliferation of control and SIRT4-expressing cells", "setting": "HeLa cells", "value": "proliferated at similar rates"}, {"measurement": "increased glutamine consumption of SIRT4 KO cells", "setting": "SIRT4 KO cells; 10 μM", "value": "rescued"}, {"measurement": "glutamine uptake", "setting": "SIRT4 KO cells", "value": "repressed glutamine uptake"}, {"measurement": "repression of glutamine uptake by UV treatment", "setting": "[4]", "value": "could no longer repress glutamine uptake"}]}
{"compound": "CC[C@H]1/C=C/C=C/C[C@@H](C)[C@H](O)[C@@](C)(O)C(=O)[C@@H](C)[C@H](O)[C@@H](C)C(=O)[C@@H](C)[C@H](O)[C@@H](C)/C=C/C(=O)O[C@@H]2[C@H](C)[C@H](CC1)O[C@]1(CC[C@H](C)[C@H](C[C@@H](C)O)O1)[C@H]2C", "note": "[oligomycin]", "values": [{"measurement": "difference in ATP/ADP ratio between SIRT4 and mutant SIRT4 over-expressing cells after CPT", "setting": "HepG2 cells [5]", "value": "difference disappeared"}]}
